The subject of assay [1] is S. cerevisiae. Kind of assay: Yeast fermentation with FR171456 and metabolic profiling for substrate accumulation. It counts as cell-based. On the procedure:
In the fermentation experiment, a single yeast colony was grown in 10 ml YP with galactose (2%) & Raffinose (1%) for 5 h (OD 1.0) at 30 °C. An inoculum (70 μl) from the same culture was used to inoculate 400 ml YP-gal (2%)+Raffinose (1%). This culture was then grown overnight at 30 °C. The OD at this point was 0.7. This culture was used to seed 20-l fermenter maintained at 30 °C. When OD in the fermenter was 0.7, then 1466, nM (IC80) of FR171456 was added to the fermenter. The cell pellets (3.8 g) were harvested after 7 h. Erg26p substrate (1.95 mg) was obtained by lipid extraction with ethylacetate and methanol.
Lipid extracts from yeast cells were prepared as described as above. Ergosterol and 4α-methylzymosterol-4-carboxylic acid were analysed on an UltiMate 3000 RS LC (Thermo Fisher Scientific, Waltham, MA, USA) coupled to a 4000 QTRAP (AB Sciex, Foster City, CA, USA), which was equipped with a ESI-Turbo Spray ion source (AB Sciex). […]
Ion source parameters and compound-dependent instrument parameters were optimized by infusing pure standard solutions of ergosterol and 4α-methylzymosterol-4-carboxylic acid, respectively. […] All mass transitions were monitored for 65 msec per SRM scan with a unit/unit resolution for Q1/Q3. […]

For assay [2], the system named is S. cerevisiae (BY4743 strain). The assay is described as follows: Yeast growth inhibition dose response (OD600). It counts as cell-based. To be noted: BY4743, 14 h, 30 °C, YPD, 2% DMSO. On the procedure: Figure 2 FR171456 targets Erg26p in S. cerevisiae. (a) Structures of FR171456, and two related triterpenes (compound 1, compound 2). (b) Duplicate 12-point Dose response curves of wild-type diploid yeast with three compounds in a. Strain BY4743 was grown for 14 h at 30 °C in YPD media with 2% DMSO containing a dilution series of FR171456: black; Compound-1: light grey circles, and Compound-2: light grey squares. Y axis: OD600 absorbance indicating yeast growth, x axis: compound concentrations (log10 μM). (c) Haploinsufficiency and homozygous profiling (HIP resp. HOP) for FR171456 at 4 μM. Each mutant strain in the pool is represented by a circle (non-essential genes) or a square (essential genes). The, y axis represents strain sensitivity and x axis represents z-score (specificity). In (d), the z-scores of the HIP pool strains (y axis) plotted against increasing doses of FR171456 (x axis; μM). (e) Relative compound sensitivity profile of the erg26Δ/ERG26 strain across HIP experiments performed with 1,800 diverse small molecule yeast proliferation inhibitors. TEXT PRINTED IN THE PICTURE: (a) FR171456: MW 516.68; S.c. […] IC50 >200 μM | (a) Compound 2: MW 532.68; S.c. IC50 >200 μM

The test system of assay [3] is hepatic sterol synthesis. Also noted: method as in PMID 15217190. To be noted: rats, short term experiments, up to 10 mg kg^−1 ref 14; cited from earlier work.
Assay [4] concerns Saccharomyces cerevisiae NF3201. The assay is described as follows: Antifungal MIC. The assay is classed as cell-based.
The subject of assay [5] is K562. The assay is described as follows: Mammalian cell proliferation, K562. The assay is classed as cell-based.
The test system of assay [6] is Candida krusei NF2902. The assay is described as follows: Antifungal MIC. To be noted: Pichia kudriavzevii. It counts as cell-based.
For assay [7], the system named is erg26Δ haploid yeast expressing mutant ERG26 alleles. The assay is described as follows: Growth dose response of erg26Δ haploid yeast expressing mutant ERG26 alleles. It counts as cell-based, S. cerevisiae. To be noted: seven mutant ERG26 alleles, rich liquid media. The source says:
To confirm that the observed ERG26 mutations are dominant and sufficient to confer FR171456 resistance, but retain the essential function of Erg26p, we assessed the growth of erg26Δ haploid yeast expressing wild-type ERG26 or one of seven mutant alleles inserted at another locus in rich liquid media. […] It was not possible to generate a haploid strain carrying a single copy of ERG26 encoding the Gly90Ser mutation after multiple attempts. Thus seven of the eight mutations within the coding region of ERG26 are both dominant for FR171456 resistance and retain sufficient enzymatic function to support life. This additional genetic data set confirms that Erg26p is the target of FR171456.
For EMS mutagenesis experiments, 1 × 10^8 cells were plated on one standard YPD agar plate containing 50 μM FR171456 in 2% DMSO v/v following a standard EMS mutagenesis protocol. After 2 days incubation at 30 °C 48 representative colonies were picked and retested in an overnight liquid assay for growth in YPD with or without 50 μM FR171456 in 2% DMSO v/v. Genomic DNA was prepared from 42 resistant clones (+ one wild type) and for each the entire ERG26 gene was sequenced following PCR amplification with high-fidelity polymerase. […]

Assay [8] relates to Candida parapsilosis NF2903. Kind of assay: Antifungal MIC. The assay is classed as cell-based. To be noted: Lodderomyces parapsilosis.
Assay [9] deals with Rhizopus oryzae NF4801. Kind of assay: Antifungal MIC. The assay is classed as cell-based. To be noted: Rhizopus arrhizus.
Assay [10] concerns Fusarium verticillioides NF4901. The assay is described as follows: Antifungal MIC. The assay is classed as cell-based.
Assay [11] addresses delta-opioid receptor (Homo sapiens, UniProt P41143). Kind of assay: Radioligand competition assay. The assay is classed as binding. (In general: Displacement assays read how much labelled ligand stays bound in the presence of the test substance.)
Assay [12] deals with HepG2. The assay is described as follows: Mammalian cell proliferation, HepG2. The assay is classed as cell-based.

Where “and” joins values, the source holds several entries; their conditions need not be identical. Equal values may be shown once.

Sequence of delta-opioid receptor (P41143 whole entry): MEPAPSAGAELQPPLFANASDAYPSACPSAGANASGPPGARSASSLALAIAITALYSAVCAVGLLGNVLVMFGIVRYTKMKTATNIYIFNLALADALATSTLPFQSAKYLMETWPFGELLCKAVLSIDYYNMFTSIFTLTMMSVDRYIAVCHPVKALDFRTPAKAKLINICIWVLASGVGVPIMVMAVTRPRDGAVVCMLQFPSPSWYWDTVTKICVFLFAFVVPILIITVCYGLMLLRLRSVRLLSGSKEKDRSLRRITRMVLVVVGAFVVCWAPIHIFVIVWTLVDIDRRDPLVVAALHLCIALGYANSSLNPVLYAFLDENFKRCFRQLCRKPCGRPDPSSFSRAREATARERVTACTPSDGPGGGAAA

As usually defined, the IC80 is the concentration at which the effect reaches the 80% level. High values mean a need for much substance, low ones an effect from little substance. The IC50 is the midpoint of a concentration-inhibition curve. Lower therefore signals inhibition by little substance. What is called MIC is the least concentration at which growth counts as inhibited. On to `C=C(CCC(C)C1CCC2C1(C)CC(O)C13CC14C(=O)CC(O)C(C)(C(=O)O)C4C(=O)CC23O)C(C)C` [FR171456, (1R,2aR,3R,5aR,5bS,7aR,8S,9S,11aS,12aR)-1,5b,9-trihydroxy-2a,8-dimethyl-3-((R)-6-methyl-5-methyleneheptan-2-yl)-7,11-dioxohexadecahydrocyclopenta[a]cyclopropa[e]-phenanthrene-8-carboxylic acid], for which, in [1] (FR171456 1466 nM for 7 h), the “Erg26p precursor (4α-methylzymosterol-4-carboxylic acid) level” value is recorded as “accumulates”. In addition, in assay [1] (Saccharomyces cerevisiae, yeast in YP-gal (2%)+Raffinose (1%), fermenter 30 °C), the concentration for an effect of 80% (IC80) amounted to 1.47 µM. Besides, the IC50 in [2] worked out at 13.6 µM; in [2] (Saccharomyces cerevisiae, 14 h), 14 µM; in assay [11], 0.1 µM. Further, the “dose giving significant reduction in hepatic sterol synthesis” value in assay [3] is 0.1 mg/kg. For the same compound, the MIC was 8 µg/mL and 18 µM in [4]; 64 µg/mL and 144 µM in assay [6]; 32 µg/mL and 72 µM in [8]; 8 µg/mL and 18 µM in [9]; 32 µg/mL and 72 µM in [10]. Moreover, the values for the concentration affecting proliferation in assay [5] and in assay [12] were 36 µM and 80 µM, respectively. Moreover, the “change of growth IC50 compared with the isogenic control” value in [7] is “increase in the IC50”.
